Patent publication US20050209157A1, “Short bioactive peptides and methods for their use” (priority 2001, published 2005)
≈ marks a conversion by molar mass, not a printed value. Like-named read-outs stand apart in the source and are kept apart here. No end group written: not given here.

What was measured:
in vitro [1] = assay type: cell-based, human; conditions: human, human red blood cells
in vitro [2] = conditions: human, WI38 normal lung fibroblast cells
[3] = test system: Escherichia coli ATCC 25922; assay: Antimicrobial assay I, modified protocol (tryptic soy broth), MBC; conditions: minimum bactericidal concentration, Table 4
[4] = test system: Pseudomonas aeruginosa ATCC 27853; assay: as above; conditions: minimum bactericidal concentration, Table 4
[5] = test system: Stapholococcus aureus ATCC 25923; assay: as above; conditions: minimum bactericidal concentration, Table 4
[6] = test system: Candida albicans ATCC 10231; assay: Antimicrobial assay I, modified protocol (tryptic soy broth), MFC; conditions: minimum fungicidal concentration, Table 4
[7] = test system: human red blood cells (RBC); assay: in vitro; assay type: cell-based; conditions: hemolytic assay, concentration at 50% hemolysis, 1 hour at 37° C.
H1299 = assay: Anti-cancer assay, MTT, LD50; assay type: cell-based; conditions: 24 hours with peptide, lung large cell carcinoma
Description: (§1) Numbers are LD50 values (μg/mL).

HeLaS3 = assay: Anti-cancer assay, MTT, LD50; assay type: cell-based; conditions: 24 hours with peptide, cervical carcinoma
Description: as §1

PC3 = assay: Anti-cancer assay, MTT, LD50; assay type: cell-based; conditions: 24 hours with peptide, prostate adenocarcinoma
Description: as §1

[8] = test system: human leukocyte (WBC) cells; assay: Stimulation and proliferation of leukocytes, Alamar Blue; assay type: cell-based; conditions: compared to untreated positive control cells; Alamar Blue
Experimental: In vitro viability of human leukocyte cells in the presence of different peptides at different concentrations was determined by an Alamar Blue protocol. Alamar Blue (Promega, Madison, Wis.) is an indicator dye, formulated to measure quantitatively the proliferation and cytotoxicity of the cells. The dye consists of an oxidation-reduction (redox) indicator that yields a calorimetric change and a fluorescent signal in response to cellular metabolic activity.
Assay protocol: Blood from a human was drawn and centrifuged at 1500 rpm for 15 minutes at room temperature. The buffy coat cells at the plasma-red blood cell interface were aspirated. Buffy coat cells (mainly lymphocyte cells) were then transferred into 15 ml centrifuge tubes containing 5 ml of RPMI-1640 medium+10% Fetal Bovine Serum (Gibco, Grand Island, N.Y.). Additional medium was added to the tubes to bring the volume up to 10 ml. The buffy coat suspension was then carefully layered on 5 ml of Histopaque (Sigma Chemical Co., St. Louis, Mo.) and centrifuged at 1500 rpm for 30 minutes at room temperature. The interface which is mostly PBMCs (peripheral mononuclear cells) was aspirated and transferred to a 15 ml conical centrifuge tube and, resuspended in 2 ml cold RPMI-1640 and brought up to 15 ml with cold RPMI-1640 medium. Cells were centrifuged at 1500 rpm for 10 minutes. The supernatant was then aspirated and discarded. The cell pellet was re-suspended in 1 ml of cold RPMI 1640 and brought up to 15 ml with RPMI medium. This step was repeated twice, except that in the last step, the cells were resuspended with 1 ml of cold RPMI-1640 medium and cell counts were performed with a hemocytometer according to the Sigma cell culture catalogue.
Pokewood mitogen was used as a control along with positive and negative controls. Negative control cells were killed with 70% methanol. Positive (+) control cells were incubated in RPMI medium (untreated). […] of AlamarBlue was added to the cells, and readings were taken after 24 hours, 48 hours, 72 hours, and 96 hours using a fluorimeter (excitation 544/transmission 590 nm).
Calculations were performed using the following formula. The peptide treated sample and positive control were adjusted for negative control. [formula]
Using the protocol described immediately above, about 100-150 peptides were screened for their stimulatory and/or inhibitory actions upon the growth of human leukocyte (“WBC”) cells as compared to the growth of untreated positive control cells.
The Alamar Blue stain used in the protocol permeates both cell and nuclear membranes, and is metabolized in the mitochondria to cause the change in color. The resulting fluorometric response is therefore a result of total mitochondrial activity caused by cell stimulation and/or mitosis (cell proliferation).

[9] = test system: Pseudomonas aeruginosa ATCC 9027; assay: Antimicrobial assay I, MIC by OD measurement; assay type: cell-based
Description: The data for the following antimicrobial assay of the peptides have been obtained by making OD measurements in in vitro cell culture experiments with and without added peptide. The protocol used is as follows.
Cell lines included Staphylococcus aureus ATCC 6538 or 25923, Pseudomonas aeruginosa ATCC 9027 or 27853. Medium used were Antibiotic Medium 3 (Difco), Antibiotic Medium 2 (Difco), and 0.85% saline. Controls used were physiological saline, and gentamycin at 50, 25, 10, 5, 1, and 0.1 ppm.
Absorbance was read at 620 nm after shaking to resuspend cells.
Staph6538 is Staphylococcus aureus ATCC accession number 6538; paerug9027 is Pseudomonas aeruginosa ATCC accession number 9027, yeast is Saccharomyces cerevisiae.

WI38 = conditions: Table 27
E. coli UB1005 = assay type: cell-based, Escherichia coli; conditions: mean of three; 16 to 20 hours at 35° C.; in µg/mL
S. typhimurium 14028S = assay type: cell-based, Salmonella typhimurium; conditions: mean of three; 16 to 20 hours at 35° C.; in µg/mL
P. aeruginosa H374 = assay type: cell-based, Pseudomonas aeruginosa; conditions: mean of three; 16 to 20 hours at 35° C.
BMKC = assay: Anti-cancer assay, MTT, LD50; assay type: cell-based; conditions: BMKC cloned melanoma line, 24 hours with peptide
Description: as §1

MCF7 = assay: Anti-cancer assay, MTT, LD50; assay type: cell-based; conditions: MCF7 breast adenocarcinoma line, MTT, 24 hours with peptide
Description: as §1

SW480 = assay: Anti-cancer assay, MTT, LD50; assay type: cell-based; conditions: SW480 colon adenocarcinoma line, 24 hours with peptide
Description: as §1

[10] = pH 7, Table 26, valine substitution, read-out: Hemolysis RBC LD50
[11] = WI-38 LD50, Table 26, valine substitution
[12] = pH 7, hemolytic assay, concentration at 50% hemolysis, 1 hour at 37° C., read-out: LD50

Molecule | MBC E. coli A.25922 [3] | MBC P. aerug A.27853 [4] [µg/mL] | MBC S. aur A.25923 [5] | MFC Candida A.10231 [6] [µg/mL] | further results
FALALKALKKLLKKLKKLAKKAL-NH2 [compound 24] | >80 µg/mL | 30 | >40 µg/mL | >50 | HC50 at 1 h (in vitro [1]; [10]): 10 µg/mL; CC50 at 24 h (in vitro [2]; [11]): 55 µg/mL
VALALKALKKALKKLKKALKKAL-NH2 [compound 30] | 10 µg/mL | 15 | 40 µg/mL | >50 | HC50 at 1 h (in vitro [1]; [10]): 150 µg/mL; CC50 at 24 h (in vitro [2]; [11]): 93 µg/mL
FAKKLAKKLKKLAKKLAK-OH [Shiva 10(1-18_AC] | – | – | – | – | LD50 [7]: > (> indicates greater than 1000)
FAKLLAKLAKKAA-NH2 [P93] | – | – | – | – | H1299 LD50 (H1299): 320 µg/mL; HeLaS3 LD50 (HeLaS3): > (> indicates greater than 1000); PC3 LD50 (PC3): 690 µg/mL; LD50 [7]: > (> indicates greater than 1000); CC50 at 24 h (in vitro [2]; WI38 LD50, MTT, 24 hours with peptide, normal fibroblast line): 530 µg/mL
VALALKALKKLAKKLKKLAKKAL-NH2 [P509] | – | – | – | – | stimulatory and/or inhibitory action on growth of human leukocyte (WBC) cells [8]: stimulatory (and/or proliferative) at all concentrations through 500 μg/ml; HC50 at 1 h (in vitro [1]; [12]): 40 µg/mL
CC(C)C[C@H](NC(=O)[C@H](C)NC(=O)[C@H](CC(C)C)NC(=O)[C@H](CCCCN)NC(=O)[C@H](C)NC(=O)[C@H](CC(C)C)NC(=O)[C@H](CCCCN)NC(=O)[C@H](CCCCN)NC(=O)[C@H](C)NC(=O)[C@H](CC(C)C)NC(=O)[C@H](CCCCN)NC(=O)[C@H](C)NC(=O)[C@H](CC(C)C)NC(=O)[C@H](CCCCN)NC(=O)[C@H](CCCCN)NC(=O)[C@H](C)NC(=O)[C@@H](N)Cc1ccccc1)C(N)=O [compound 35] | 8 µg/mL (≈ 4.31 µM) | 8 (≈ 4.31 µM) | 10 µg/mL (≈ 5.39 µM) | >40 | P. aerug (MIC) [9]: 200 µg/mL; HC50 at 1 h (in vitro [1]; [10]): 150 µg/mL; HC50 at 1 h (in vitro [1]; pH 7, Table 27, read-out: Hemolysis (LD50)): 100 µg/mL; WI38 LD50 (WI38): 25 µg/mL; CC50 at 24 h (in vitro [2]; [11]): 25 µg/mL (≈ 13.5 µM)
FAKKLAKKLKKLAKLALAL-OH [P29] | – | – | – | – | E. coli UB1005 MIC (E. coli UB1005): 8; S. typhimurium 14028S MIC (S. typhimurium 14028S): 8; P. aeruginosa H374 MIC (P. aeruginosa H374): 16 µg/mL; LD50 BMKC (BMKC): 300 µg/mL; LD50 MCF7 (MCF7): 140 µg/mL; LD50 SW480 (SW480): 210 µg/mL; HC50 at 1 h (in vitro [1]; [12]): 250 µg/mL; CC50 at 24 h (in vitro [2]; LD50 WI38, WI38 normal lung fibroblast line, MTT, 24 hours with peptide): 520 µg/mL
FALALKALKKLAKKLKKLAKKAL-NH2 [compound 25] | 40 µg/mL | 30 | 40 µg/mL | >50 | HC50 at 1 h (in vitro [1]; [10]): 16 µg/mL; CC50 at 24 h (in vitro [2]; [11]): 24 µg/mL
CC(C)C[C@H](NC(=O)CNC(=O)[C@H](CCCCN)NC(=O)[C@H](CCCCN)NC(=O)[C@H](C)NC(=O)[C@H](CC(C)C)NC(=O)[C@H](CCCCN)NC(=O)[C@H](C)NC(=O)[C@H](CC(C)C)NC(=O)[C@H](CC(C)C)NC(=O)[C@H](CCCCN)NC(=O)[C@H](C)NC(=O)[C@@H](N)Cc1ccccc1)C(N)=O [compound 152] | 150 µg/mL (≈ 107 µM) | 150 (≈ 107 µM) | >250 µg/mL | 50 (≈ 35.7 µM) | –
CC(C)C[C@H](NC(=O)[C@H](CCCCN)NC(=O)[C@H](CCCCN)NC(=O)[C@H](C)NC(=O)[C@H](CC(C)C)NC(=O)[C@H](CCCCN)NC(=O)[C@H](CCCCN)NC(=O)[C@H](CC(C)C)NC(=O)[C@H](CCCCN)NC(=O)[C@H](CCCCN)NC(=O)[C@H](C)NC(=O)[C@@H](N)Cc1ccccc1)C(N)=O [compound 79] | >50 µg/mL | >50 | >50 µg/mL | >50 | –
CC(C)C[C@H](NC(=O)[C@H](CCCCN)NC(=O)[C@H](C)NC(=O)[C@H](CC(C)C)NC(=O)[C@H](CC(C)C)NC(=O)[C@H](CCCCN)NC(=O)[C@H](C)NC(=O)[C@@H](N)Cc1ccccc1)C(=O)N[C@@H](C)C(=O)N[C@@H](CCCCN)C(=O)N[C@@H](CCCCN)C(=O)N[C@@H](C)C(=O)N[C@@H](C)C(N)=O [compound 93] | >50 µg/mL | >50 | >50 µg/mL | >50 | –
FAKLWAKLAFGKGIGKVGKKLL-NH2 [compound 135] | INACT | 40 | INACT | 25 | –
CC(C)C[C@H](NC(=O)[C@H](CCCCN)NC(=O)[C@H](C)NC(=O)[C@H](CC(C)C)NC(=O)[C@H](CC(C)C)NC(=O)[C@H](CCCCN)NC(=O)[C@H](C)NC(=O)[C@@H](N)Cc1ccccc1)C(=O)N[C@@H](C)C(=O)N[C@@H](CCCCN)C(=O)N[C@@H](C)C(=O)N[C@@H](CCCCN)C(=O)N[C@@H](C)C(N)=O [compound 95] | >50 µg/mL | >50 | >50 µg/mL | >50 | –
CC(C)C[C@H](NC(=O)[C@H](CCCCN)NC(=O)[C@H](Cc1c[nH]c2ccccc12)NC(=O)[C@H](CCCCN)NC(=O)[C@H](CCCCN)NC(=O)[C@H](C)NC(=O)[C@H](CC(C)C)NC(=O)[C@H](CCCCN)NC(=O)[C@H](CCCCN)NC(=O)[C@H](C)NC(=O)[C@H](CC(C)C)NC(=O)[C@H](CCCCN)NC(=O)[C@H](CCCCN)NC(=O)[C@H](CC(C)C)NC(=O)[C@H](CCCCN)NC(=O)[C@H](CCCCN)NC(=O)[C@H](C)NC(=O)[C@H](CC(C)C)NC(=O)[C@H](CCCCN)NC(=O)[C@H](CCCCN)NC(=O)[C@H](C)NC(=O)[C@@H](N)Cc1ccccc1)C(=O)O [compound 72] | >50 µg/mL | 40 (≈ 15.3 µM) | >50 µg/mL | >50 | –
